Results taken from ChEMBL document CHEMBL1133518, “5-[1'-(2'-N-Arylsulfonyl-1',2',3',4'-tetrahydroisoquinolyl)]-4, 5-dihydro-2(3H)-furanones: positive allosteric modulators of the GABA(A) receptor with a new mode of action” (J Med Chem, 2000).
Active and inactive are the calls of the source. The calls are words filed in the database; no cut-off is given here.

Assays:
[1] = molecular target: T1, GABA-A receptor; alpha-1/beta-2/gamma-2 (Rattus norvegicus) (UniProt P18508+P62813+P63138); assay: Percent stimulation of Cl- current in Xenopus laevis oocytes expressing rat GABA-A alpha-1-beta-2-gamma-2 subunits at 100 uM; type: functional, cell-based; settings: Oocyte
[2] = molecular target: T2, GABA-A receptor; anion channel (Rattus norvegicus) (UniProt O09028+P15431+P18506+P18508+P19969+P20236+P23574+P23576+P28471+P28473+P30191+P62813+P63079+P63138+Q91ZM7+Q9ES14); assay: In vitro displacement of [35S]TBPS from Gamma-aminobutyric acid A receptor of rat brain membranes; type: cell membranes; design: concentration or dose not given beside the values; settings: Membrane
[3] = molecular target: T2, GABA-A receptor; anion channel (Rattus norvegicus); assay: (§1) Displacement of [3H]flunitrazepam from GABA-A receptor of rat cerebellum; type: tissue-based; design: concentration or dose not given beside the values
[4] = molecular target: T2, GABA-A receptor; anion channel (Rattus norvegicus); assay: (§2) Displacement of [3H]flunitrazepam from GABA-A receptor of rat forebrain; design: concentration or dose not given beside the values
[5] = molecular target: T2, GABA-A receptor; anion channel (Rattus norvegicus); assay: In vitro displacement of [3H]muscimol from Gamma-aminobutyric acid A receptor of rat brain membranes, slight stimulation activity; type: cell membranes; settings: Membrane
[6] = molecular target: T2, GABA-A receptor; anion channel (Rattus norvegicus); assay: In vitro displacement of [3H]muscimol from Gamma-aminobutyric acid A receptor of rat brain membranes; type: cell membranes; settings: Membrane
[7] = molecular target: T2, GABA-A receptor; anion channel (Rattus norvegicus); assay: In vitro displacement of [3H]muscimol from Gamma-aminobutyric acid A receptor of rat brain membranes (15% stimulation); type: cell membranes; settings: Membrane
[8] = molecular target: GABA-A receptor; anion channel; assay: as §1; type: tissue-based
[9] = molecular target: GABA-A receptor; anion channel; assay: as §2
[10] = molecular target: T2, GABA-A receptor; anion channel (Rattus norvegicus); assay: In vitro displacement of [3H]muscimol from Gamma-aminobutyric acid A receptor of rat brain membranes, range 5-10% stimulation; type: cell membranes; settings: Membrane
[11] = molecular target: T1, GABA-A receptor; alpha-1/beta-2/gamma-2 (Rattus norvegicus); assay: Percent stimulation of pentobarbital elicited Cl- current in Xenopus laevis oocytes expressing rat GABA-A alpha-1-beta-2-gamma-2 subunits at 30 uM; type: functional, cell-based; settings: Oocyte
[12] = molecular target: T1, GABA-A receptor; alpha-1/beta-2/gamma-2 (Rattus norvegicus); assay: Percent stimulation of 5-alpha-pregnan-3-alpha-ol-20-one elicited Cl- current in Xenopus laevis oocytes expressing rat GABA-A alpha-1-beta-2-gamma-2 subunits at 30 uM; type: functional, cell-based; settings: Oocyte

| Stimulation [1] [%] | Displacement [2] [%] | Displacement [3] [%] | Displacement [4] [%] | Displacement [5] | Displacement [6] [%] | Displacement [7] [%] | IC50 [8] [nM] | IC50 [9] [nM] | Displacement [10] [%] | Stimulation [11] [%] | Stimulation [12] [%] | Structure (SMILES) |
| --- | --- | --- | --- | --- | --- | --- | --- | --- | --- | --- | --- | --- |
| 62 | 0 | 20 | 20 | inactive |  |  |  |  |  |  |  | CN(C)S(=O)(=O)N1CCc2ccccc2[C@@H]1[C@H]1CCC(=O)O1 |
| 32 | 0 | 26 | 20 |  | 0 |  |  |  |  |  |  | CS(=O)(=O)N1CCc2ccccc2[C@@H]1[C@H]1CCC(=O)O1 |
| 90 | 0 | 42 | 30 |  | 0 |  |  |  |  |  |  | O=C1CC[C@H]([C@H]2c3ccccc3CCN2S(=O)(=O)c2ccc(C(F)(F)F)cc2)O1 |
| 118 | 0 | 14 | 9 |  |  | 15 |  |  |  |  |  | O=C1CC[C@H]([C@H]2c3ccccc3CCN2S(=O)(=O)c2ccc3ccccc3c2)O1 |
| 353 | 25 | 66 | 47 |  | 0 |  |  |  |  |  |  | O=C1CC[C@H]([C@H]2c3ccccc3CCN2S(=O)(=O)c2cccs2)O1 |
| 351 | 0 |  |  |  | 0 |  | 60 | 160 |  |  |  | O=C1CC[C@H]([C@H]2c3ccccc3CCN2C(=O)OCc2ccccc2)O1 (racemic) |
| 579 | 15 | 66 | 49 |  |  |  |  |  | 10 |  |  | Cc1ccc(S(=O)(=O)N2CCc3ccccc3[C@@H]2[C@H]2CCC(=O)O2)cc1 (racemic) |
| 479 | 60 | 43 | 30 | inactive |  |  |  |  |  |  |  | O=C1CC[C@H]([C@H]2c3ccccc3CCN2S(=O)(=O)c2ccc(Cl)cc2)O1 (racemic) |
| 423 | 50 | 74 | 66 | inactive |  |  |  |  |  |  |  | O=C1CC[C@H]([C@H]2c3ccccc3CCN2S(=O)(=O)c2ccccc2)O1 (racemic) |
| 859 |  | 67 | 49 |  |  |  |  |  |  | 588 | 644 | Cc1ccc(S(=O)(=O)N2CCc3ccccc3[C@@H]2[C@H]2CCC(=O)O2)cc1 (stereo in doubt) |
| 184 |  | 61 | 35 |  |  |  |  |  |  |  |  | Cc1ccc(S(=O)(=O)N2CCc3ccccc3[C@@H]2[C@H]2CCC(=O)O2)cc1 (stereo in doubt; 2c) |
